Converted amounts (≈) assume the structure as drawn. Where two headings read alike, the source gives them in different places.
Key:
[1] = oral 400 mg, healthy volunteers, cited from earlier work
Yersinia enterocolitica = details: 74 strains; cited from earlier work
Other = details: 21 strains; cited from earlier work
[2] = system: MDCK (Mardin Darby Canine Kidney Cells) cells; assay: Permeability study using MDCK cells in transwell plates; format: in vitro ADME; details: 10 μmolar apical, 37° C., 2 hours
Method: Three well are to be used per sample. Plates are placed in shaking water bath at 37° C. for 2 hours. Take out 20 μl from apical and 100 μl from basolateral side for sample processing at […]. Lucifer Yellow is used as a marker to see the monolayer integrity of the cells. Propronalol is used as a permeability marker.
Relative area in apical remain 100% even after 2 hours.

Helicobacter pylori = details: 40 strains; MIC50 instead of MIC90; cited from earlier work
Vibrio cholerae = details: 403 strains; cited from earlier work
[3] = system: Escherichia coli Enteroaggregative; details: 75 strains; cited from earlier work
Campylobacter jejuni = details: cited from earlier work
E. Coli = assay: Anti-microbial activity by cup plate / well plate method (zone of inhibition); format: cell-based; details: 200 μl per well, 37° C., 24 hrs
Method: The measurement of zone diameters estimates the susceptibility of bacteria to antimicrobial compounds.
Prepare a nutrient agar medium in distilled water and sterilize this media in autoclave at 121° C. for 15 min. Transfer this media aseptically in sterile petriplate, allow the media to solidify for few minutes. After solidification, add test micro-organism i.e. E. Coli (100 μl) in each plate and spread this culture with the help of spreader. Prepare the well in plate with the help of borer.

[4] = system: Escherichia coli Enterotoxigenic; details: 97 strains; cited from earlier work
Shigella species = details: 36 strains; cited from earlier work
Salmonella species = details: 46 strains; cited from earlier work
physchem = format: physicochemical; details: thermodynamic from solid
Description: Another embodiment relates to various methods for screening and analyzing methods and preparations that are intended to enhance the dissolution of poorly soluble drugs. These analysis methods include dissolution studies, saturation solubility studies, wettability studies, permeation studies, X-ray diffraction studies etc.

CO[C@H]1/C=C/O[C@@]2(C)Oc3c(C)c(O)c4c(O)c(c5c(nc6cc(C)ccn65)c4c3C2=O)NC(=O)/C(C)=C\C=C\[C@H](C)[C@H](O)[C@@H](C)[C@@H](O)[C@@H](C)[C@H](OC(C)=O)[C@@H]1C [14C-rifaximin]
dose recovered in feces ([1]; almost entirely as unchanged drug): approximately 97%
dose recovered in the urine [1]: 0.32%

CO[C@H]1/C=C/O[C@@]2(C)Oc3c(C)c(O)c4c(O)c(c5c(nc6cc(C)ccn65)c4c3C2=O)NC(=O)/C(C)=C\C=C\[C@H](C)[C@H](O)[C@@H](C)[C@@H](O)[C@@H](C)[C@H](OC(C)=O)[C@@H]1C [rifaximin]
MIC90 (Yersinia enterocolitica): 16 µg/mL (≈ 20.4 µM)
MIC90 (Other): 4 µg/mL (≈ 5.09 µM)
amount found in the basolateral side of the transwell (apparent permeability) [2]: No detectable amount
MIC50 (Helicobacter pylori): 4 (MIC50) μg/ml
MIC90 (Vibrio cholerae): 4 µg/mL (≈ 5.09 µM)
MIC90 [3]: 32 µg/mL (≈ 40.7 µM)
MIC90 (Campylobacter jejuni; 9 strains): 32 µg/mL (≈ 40.7 µM)
MIC90 (Campylobacter jejuni; 54 strains): 128 µg/mL (≈ 163 µM)
area of zone of inhibition (E. Coli): very negligible
MIC90 [4]: 32 µg/mL (≈ 40.7 µM)
MIC90 (Shigella species): 64 µg/mL (≈ 81.4 µM)
MIC90 (Salmonella species): 64 µg/mL (≈ 81.4 µM)
solubility (physchem; pH 6.8, aqueous buffer): 10 µg/mL (≈ 12.7 µM)
solubility (physchem; water): < 10 µg/mL
